Columns and labels:
[1] = system: CD45+/CD34+ and CD45+/CD34- cell populations in peripheral blood; experiment: Flow cytometry of peripheral blood mononuclear cells after PTH or G-CSF in healthy mice; format: in vivo, C57BL/6 mice
Procedure: (§1) For the experiments healthy age- and sex-matched (male, 8-12 weeks of age) C57BL/6 mice (Charles River) were used. Animal care and all experimental procedures were performed in strict accordance to the German and National Institutes of Health animal legislation guidelines and were approved by the local animal care and use committees.
(§2) Mice were divided into the following groups: 1) administration of saline daily for 6 days, sacrificed at day 7 (n=6). 2) administration of PTH (Bachem) daily for 6 consecutive days (80 μg per kg body weight per day, intraperitoneally), sacrificed at day 7 (n=6). 3) administration of PTH daily for 14 consecutive days, sacrificed at day 15 (n=6). 4) administration of G-CSF (Amgen Biologicals) daily for 5 consecutive days (200 μg per kg body weight per day, intraperitoneally), sacrificed at day 6 (n=6).
(§3) at day 6, 1 ml of peripheral blood was harvested from each mouse by aspirating the carotid artery. Bone marrow cells were obtained by flushing the tibias and femurs from the euthanized mice. Mononuclear cells were separated by density-gradient centrifugation using 1.077 g/mL Histopaque solution (Sigma Chemicals), purified and resuspended in phosphate-buffered saline (PBS) containing 1% bovine serum albumin. Cells were incubated for 40 minutes in the dark at 4° C. with following fluorescein-isothiocyanate (FITC), phycoerythrin (PE), and peridinin-chlorphyll-protein (PerCP) conjugated monoclonal antibodies: CD45-PerCP, C34-FITC, CD31-PE, Sca-1-PE and c-kit-PE (all from BD Pharmingen). Isotype-identical antibodies (BD Pharmingen) served as controls. Cells were analyzed by 3-color flow cytometry using a Coulter® Epics® XL-MCL™ flow cytometer (Beckman Coulter). Each analysis included 20000 events. The absolute number of antigen-positive cells per ml of whole blood was calculated by multiplying the percentage of antigen-positive cells with the total number of mononuclear cells per ml of blood detected by the conventional hematological cell analyzer. The number of lymphocytes together with the number of monocytes comprised the total number of mononuclear cells.

[2] = system: CD45+/CD34+ and CD45+/CD34- cell populations in bone marrow; experiment: Flow cytometry of bone marrow cells after PTH or G-CSF in healthy mice; format: in vivo, C57BL/6 mice
Procedure: as §1, §2, §3

[3] = system: CD45/Sca-1 and CD45/CD34 positive stem cells; experiment: PTH induced migration of CD45+ stem cells to the ischemic heart; format: in vivo, mice; conditions: 48 hours after myocardial ischemia
[4] = system: CD45 positive stem cells in peripheral blood; experiment: Mobilization of bone marrow derived cells by PTH(1-34), flow cytometry of peripheral blood; format: in vivo, C57BL/6 mice
Procedure: 8-12 week old C57BL/6 mice (n=5) were either treated with PTH (80 μg/kg/d) or saline daily for 5 or 14 consecutive days. At day 6 and day 14, 1 ml of peripheral blood was harvested from each mouse by aspirating the carotid artery. To define the number of leukocytes, heparinized blood samples were analyzed using a conventional hematological cell analyzer (Sysmex XE 2100). Mononuclear cells were separated by density-gradient centrifugation using Histopaque solution (1.077 g/ml, Sigma Chemicals), purified and resuspended in phosphate-buffered saline (PBS) containing 1% bovine serum albumin. Cells were incubated for 40 minutes in the dark at 4° C. with the following fluorescein-isothiocyanate (FITC), phycoerythrin (PE), and peridinin-chlorophyll-protein (PerCP) conjugated monoclonal antibodies: CD45− PerCP, CD34-FITC, CD31-PE, Sca-1-PE and c-kit-PE (all from BD Pharmingen). Matching isotype antibodies (BD Pharmingen) served as controls. Cells were analyzed by 3-color flow cytometry using a Coulter® Epics® XL-MCL™ flow cytometer (Beckman Coulter). Each analysis included 20000 events.

SDF-1 = SDF-1 expression in ischemic myocardium after PTH treatment; format: in vivo, mice; conditions: 48 hours after PTH treatment
G-CSF = G-CSF serum level by ELISA after PTH; format: in vivo, C57BL/6 mice
Procedure: as §2
G-CSF and SCF serum levels were determined by ELISA (Mouse G-CSF and Mouse SCF, RayBiotech).

In the case of rat PTH (1-34), the “increase of subpopulations of CD45+/CD34+ and CD45+/CD34- cells” value ([1]; PTH 80 μg/kg/d for 6 or 14 days, peripheral blood) is reported as 1.5- to 9.8 fold, the “mobilization of CD45+/CD34+ cells by PTH compared to G-CSF treatment” value ([1]; PTH 80 μg/kg/d vs G-CSF 200 μg/kg/d 5 days) is reported as 20-50% and the “subtypes of CD45+/CD34+ and CD45+/CD34- cells in peripheral blood” value ([1]; PTH day 6 and day 14, G-CSF day 6) is reported as “significant increase”. For the same substance, the “mobilization of stem cells which express c-kit” value ([1]; in comparison to a control) was 5 fold, the “number of mobilized subtypes of CD45+/CD34+ cells, PTH compared with G-CSF” value ([1]; peripheral blood) was “significant lower number” and the “mobilized CD45+/CD34-/c-kit+ cells, PTH compared with G-CSF” value ([1]; peripheral blood, p<0.05) was 49-50%. The “subtypes of CD45+/CD34- cells in bone marrow” value ([2]; PTH day 6, G-CSF) was “significant decrease”, the “subtypes of CD45+CD34+ cells in bone marrow” value ([2]; PTH day 6 or day 14, G-CSF vs control group) was “no significant change” and the “migration of CD45/Sca-1 and CD45/CD34 positive stem cells to the heart” value [3] was “enhanced migration”. The “increase of CD45+/CD34+ cells” value ([4]; day 6) was 4.4 fold, the “increase of CD45+/CD34+/CD31+ cells” value ([4]; day 6) was 2.9 fold and the “increase of CD45+/CD34+/Sca-1+ cells” value ([4]; day 6) was 2.9 fold. For the same substance, the “increase of CD45+/CD34+/c-kit+ cells” value ([4]; day 6) was 6.1 fold, the “increase of CD45+/CD34+ cells” value ([4]; day 14) was 6.0 fold and the “increase of CD45+/CD34+/CD31+ cells” value ([4]; day 14) was 3.1 fold. For the same substance, the “increase of CD45+/CD34+/Sca-1+ cells” value ([4]; day 14) was 2.9 fold, the “increase of CD45+/CD34+/c-kit+ cells” value ([4]; day 14) was 9.0 fold and the “homing factor SDF-1 in the ischemic myocardium” value (SDF-1) was “upregulated”. For the same substance, the “increase of G-CSF serum value” (G-CSF; PTH treated mice, ELISA) was 2.8 fold and the “serum level of G-CSF” value (G-CSF; day 6 of PTH stimulation) was 6035.5 ± 1318.4 pg/mL.
